Laboratory results from ChEMBL document CHEMBL3885881, “DrugMatrix”.

Organism: Rattus norvegicus
Assay type: toxicity, organism-based, Sprague-Dawley
Settings: in vivo, ip, 0 mg/kg, 24 h, vehicle control, route intraperitoneal, dose level Control, time 1 day, vehicle .1 % RSA/SALINE
Description: DrugMatrix - Regimen: Single

In the case of INTERLEUKIN 6, RAT, the “ABSOLUTE EOSINOPHIL” value (tissue Blood) is reported as 109.33 CELLS/uL, the “ABSOLUTE LYMPHOCYTE” value (tissue Blood) is reported as 13180.67 CELLS/uL and the “ABSOLUTE MONOCYTE” value (tissue Blood) is reported as 354 CELLS/uL. For the same sequence, the “ABSOLUTE SEGMENTED NEUTROPHIL” value (tissue Blood) was 1756 CELLS/uL, the BASOPHIL (tissue Blood) was 0% and the EOSINOPHIL (tissue Blood) was 0.67%. The “ERYTHROCYTE COUNT” value (tissue Blood) was 5.38 x10E6/uL, the HEMOGLOBIN (tissue Blood) was 12.57 G/DL and the “LEUKOCYTE COUNT” value (tissue Blood) was 15.4 x10E3/uL. For the same sequence, the LYMPHOCYTE (tissue Blood) was 85%, the “MEAN CORPUSCULAR HEMOGLOBIN” value (tissue Blood) was 23.37 pg and the “MEAN CORPUSCULAR HEMOGLOBIN CONCENTRATION” value (tissue Blood) was 38.3 G/DL. The NEUTROPHIL (tissue Blood) was 12%, the “NUCLEATED RED BLOOD CELLS” value (tissue Blood) was 0 /100WBC and the “PLATELET COUNT” value (tissue Blood) was 832.33 x10E3/uL. The “ALANINE AMINOTRANSFERASE” value (tissue Plasma) was 37.33 u/L, the ALBUMIN (tissue Plasma) was 4 G/DL and the “ALKALINE PHOSPHATASE” value (tissue Plasma) was 344.67 u/L. For the same sequence, the “ASPARTATE AMINOTRANSFERASE” value (tissue Plasma) was 69.33 u/L, the “BLOOD UREA NITROGEN” value (tissue Plasma) was 13.67 mg/dL and the “CARBON DIOXIDE” value (tissue Plasma) was 28.33 mmol/L. The CHLORIDE (tissue Plasma) was 99.67 MEQ/L, the CHOLESTEROL (tissue Plasma) was 73.67 mg/dL and the “CREATINE PHOSPHOKINASE” value (tissue Plasma) was 270 u/L. The CREATININE (tissue Plasma) was 0.19 mg/dL, the GLUCOSE (tissue Plasma) was 176.33 mg/dL and the “LACTATE DEHYDROGENASE” value (tissue Plasma) was 160 u/L. The PHOSPHORUS (tissue Plasma) was 13.47 mg/dL, the POTASSIUM (tissue Plasma) was 6.77 MEQ/L and the “TOTAL BILIRUBIN” value (tissue Plasma) was 0.13 mg/dL. The “TOTAL PROTEIN” value (tissue Plasma) was 6.07 G/DL and the “URIC ACID” value (tissue Plasma) was 1.87 mg/dL.
